Data as given in the supplement of paper PMC8149375.
“And” between values parts separate entries of the source, which are not always exact repeats. Identical values can stand only once.

Tests used:
Settings in all cases: treatment: drug alone; 5 days
769-P [1] = assay: GI50, drug alone; higher = less potent
Description: (§1)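 Primary HTS: 8 RCC cell lines treated with 8 doses (up to 10 uM) of each library drug alone for 5 days; viability read by CellTiter-Glo and normalised to DMSO. GI50 was fitted with XLfit (4-parameter), AUC is the area under the dose-response curve, and minimum viability is the lowest fraction of DMSO viability across doses.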

786-O [2] = assay: GI50, drug alone; higher = less potent
Description: as §1

A498 [3] = assay: GI50, drug alone; higher = less potent
Description: as §1

ACHN [4] = assay: GI50, drug alone; higher = less potent
Description: as §1

CAKI-1 [5] = assay: GI50, drug alone; higher = less potent
Description: as §1

SN12C [6] = assay: GI50, drug alone; higher = less potent
Description: as §1

TK-10 [7] = assay: GI50, drug alone; higher = less potent
Description: as §1

UO-31 [8] = assay: GI50, drug alone; higher = less potent
Description: as §1

769-P [9] = assay: minimum viability across doses, drug alone, relative to DMSO (fraction); higher = less growth inhibition
Description: as §1

786-O [10] = assay: as above
Description: as §1

A498 [11] = assay: as above
Description: as §1

ACHN [12] = assay: as above
Description: as §1

TK-10 [13] = assay: as above
Description: as §1

UO-31 [14] = assay: as above
Description: as §1

769-P [15] = assay: AUC of dose-response viability curve, drug alone (arbitrary (AUC of normalised viability)); higher = less growth inhibition
Description: as §1

786-O [16] = assay: as above
Description: as §1

A498 [17] = assay: as above
Description: as §1

ACHN [18] = assay: as above
Description: as §1

CAKI-1 [19] = assay: as above
Description: as §1

SN12C [20] = assay: as above
Description: as §1

TK-10 [21] = assay: as above
Description: as §1

UO-31 [22] = assay: as above
Description: as §1

CAKI-1 [23] = assay: minimum viability across doses, drug alone, relative to DMSO (fraction); higher = less growth inhibition
Description: as §1

SN12C [24] = assay: as above
Description: as §1

GI50, drug alone (786-O [2])	GI50, drug alone (ACHN [4])	Structure (SMILES)	GI50, drug alone (769-P [1])	GI50, drug alone (A498 [3])	GI50, drug alone (CAKI-1 [5])	GI50, drug alone (SN12C [6])	GI50, drug alone (TK-10 [7])	GI50, drug alone (UO-31 [8])	minimum viability across doses (769-P [9])	minimum viability across doses (786-O [10])	minimum viability across doses (A498 [11])	minimum viability across doses (ACHN [12])	minimum viability across doses (TK-10 [13])	minimum viability across doses (UO-31 [14])	AUC of dose-response viability curve (769-P [15])	AUC of dose-response viability curve (786-O [16])	AUC of dose-response viability curve (A498 [17])	AUC of dose-response viability curve (ACHN [18])	AUC of dose-response viability curve (CAKI-1 [19])	AUC of dose-response viability curve (SN12C [20])	AUC of dose-response viability curve (TK-10 [21])	AUC of dose-response viability curve (UO-31 [22])	minimum viability across doses (CAKI-1 [23])	minimum viability across doses (SN12C [24])
1630 nM and 1100 nM	394 nM and 247 nM	Cc1cnc(Nc2ccc(N3CCN(C)CC3)cc2)nc1Nc1cccc(S(=O)(=O)NC(C)(C)C)c1	3640 nM and 1860 nM	8980 nM and 9200 nM	523 nM and 494 nM	2190 nM and 1470 nM	596 nM and 364 nM	3060 nM and 2230 nM	0.0716 and 0.0287	0.011 and 0.00951	0.19 and 0.161	0.00241 and 0.0043	0.00169 and 0.00288	0.0126 and 0.00902	2.9 and 2.62	2.78 and 2.6	3.84 and 4.19	2.1 and 1.82	2.2 and 2.24	2.78 and 2.61	2.15 and 1.95	3.84 and 3.52	–	–
> 10000 nM	2670 nM	CN(C)Cc1cccc(N/C(=C2\C(=O)Nc3cc(C(=O)N(C)C)ccc32)c2ccccc2)c1	> 10000 nM	> 10000 nM	4000 nM	8690 nM	9600 nM	9910 nM	0.867	0.524	1.14	0.127	0.481	0.605	3.43	2.81	4.62	2.8	3.08	3.05	2.94	4.64	0.12	0.382
247 nM	560 nM	O=C(NC[C@H](O)CO)c1ccncc1Nc1ccc(I)cc1F	1140 nM	> 10000 nM	654 nM	5970 nM	715 nM	9220 nM	0.268	0.292	0.687	0.273	0.282	0.367	2.44	1.84	4.02	2.11	2.27	2.62	2.12	4.06	0.203	0.409
879 nM	667 nM	Cc1n[nH]c2ccc(-c3cncc(OC[C@@H](N)Cc4ccccc4)c3)cc12	2010 nM	1160 nM	1220 nM	1430 nM	1390 nM	887 nM	0.0141	0.00649	0.0113	0.00528	0.141	0.00834	2.74	2.19	2.46	2.28	2.6	2.55	2.54	2.35	0.073	0.00861
936 nM	327 nM	Cc1ccc(C(=O)Nc2ccc(CN3CCN(C)CC3)c(C(F)(F)F)c2)cc1C#Cc1cnc2cccnn12	2210 nM	2090 nM	486 nM	942 nM	531 nM	1250 nM	–	–	–	–	–	–	–	–	–	–	–	–	–	–	–	–
> 10000 nM	> 10000 nM	CCS(=O)(=O)N1CC(CC#N)(n2cc(-c3ncnc4[nH]ccc34)cn2)C1	> 10000 nM	> 10000 nM	> 10000 nM	> 10000 nM	> 10000 nM	> 10000 nM	0.953	0.619	1.07	0.758	0.817	1.11	3.62	3.07	4.43	3.17	3.58	3.36	3.09	4.72	0.926	0.885
> 10000 nM	> 10000 nM	Nc1nccc(Oc2ccc(NC(=O)c3c[nH]cc(-c4ccc(F)cc4)c3=O)cc2F)c1Cl	> 10000 nM	> 10000 nM	> 10000 nM	> 10000 nM	> 10000 nM	3800 nM	0.951	0.607	0.973	0.649	0.689	0.00247	3.52	2.73	4.08	3.5	3.45	3.25	2.97	4.74	0.716	0.711
631 nM	5910 nM	NC1(Cc2ccc(Cl)cc2)CCN(c2ncnc3[nH]ccc23)CC1	8760 nM	> 10000 nM	> 10000 nM	7350 nM	4560 nM	3800 nM	0.432	0.0631	0.905	0.287	0.284	0.00579	3.31	2.17	4.01	3.38	3.21	3.08	3.01	4.18	0.348	0.431
> 10000 nM	1720 nM	CN(C[C@@H]1COCCO1)S(=O)(=O)Nc1ccc2ccc3ncc(-c4cnn(C)c4)cc3c(=O)c2c1 [MK-2461]	> 10000 nM	> 10000 nM	1120 nM	> 10000 nM	> 10000 nM	> 10000 nM	0.772	0.653	0.968	0.217	0.649	1.03	3.6	5.52	7.41	2.6	2.48	3.09	2.8	–	0.0916	0.727
6.39 nM	9.67 nM	Nc1ccc(-c2ccc3ncc4ccc(=O)n(-c5cccc(C(F)(F)F)c5)c4c3c2)cn1 [Torin 2]	39.8 nM	35.4 nM	32.2 nM	20.3 nM	–	12 nM	0.0587	0.00282	0.0258	0.0442	0.0151	0.0112	1.2	0.512	1.25	0.678	1.07	1.02	0.982	0.591	0.0161	0.0362
